Test results from patent publication US6960589B2, “Benzimidazoles that are useful in treating sexual dysfunction” (Abbott Laboratories, priority 2001, dated 2005).
Several values for one entry are separate records, joined by “and”; a condition that tells them apart may be missing. Equal values may be shown once.

Columns and labels:
Wistar rats = assay: Rat penile erection model; format: in vivo; conditions: for Induction of penile erections in rats (result in words): subcutaneous administration, doses of 0.01 μmol/kg to 0.10 μmol/kg
Method: Wistar rats were used as a primary animal model to study penile erection in vivo. All experiments were carried out between 9:00 AM and 3:00 PM in a diffusely illuminated testing room with a red light. Animals were weighed and allowed to adapt to the testing room for 60 minutes before the beginning of experiments. Rats were placed individually in a transparent cage (20×30×30 cm) after drug injection.
(L)-Ascorbic acid in saline (1 mg/mL) was used as vehicle. Twelve animals were used per dose.

Male Fitch ferrets = test system: Male Fitch ferrets; parameters: species or system ferret; conditions: in vivo, sc
Method: Male Fitch ferrets (body weights 1.0-1.5 kg) were obtained from Marshall Farms. Ferrets were fasted overnight before experimentation. Apomorphine or a compound of the present invention was administrated subcutaneously; animals were placed individually in observation cages and the drug-induced emesis and signs of nausea were determined (by direct observation) for a period of 90 minutes following drug injection. Nausea was characterized by behaviors such as licking, gagging, backing, head burying, and intense abdominal grooming. Emesis was usually preceded by these behaviors and was characterized by rhythmic abdominal contractions which were associated with vomiting or retching movement.
Sterile saline was used as vehicle. Six animals were used per dose.

Compound	melting point [°C]	also measured
c1ccc(N2CCN(Cc3nc4ccccc4[nH]3)CC2)nc1 [2-[(4-pyridin-2-ylpiperazin-1-yl)methyl]-1H-benzimidazole]		Induction of penile erections in rats (result in words) (Wistar rats): induced statistically significant penile erections; Induction of emesis in ferrets (result in words) (Male Fitch ferrets): did not induce emesis
CN1CCc2cccc3c2[C@H]1Cc1ccc(O)c(O)c1-3 [Apomorphine, (6aR) 5,6,6a,7-tetrahydro-6-methyl-4H-dibenzo[de,g]quinoline-10,11-diol, reference compound]		Incidence (%) of penile erection (animals exhibiting 1 or more erections) (Wistar rats; rats, dose 0.1 μmol/kg, observed 60 minutes after dosing): 83% and 93%
c1ccc2[nH]c(CN3CCN(c4nccs4)CC3)nc2c1 [Example 7, 2-{[4-(1,3-thiazol-2-yl)piperazin-1-yl]methyl}-1H-benzimidazole]	203 to 205	
O=C(N1CCCC1)n1c(CN2CCN(c3ccccn3)CC2)nc2ccccc21 [Example 9, 2-[(4-pyridin-2-ylpiperazin-1-yl)methyl]-1-(pyrrolidin-1-ylcarbonyl)-1H-benzimidazole]	120 to 121	
CN(C)C(=O)n1c(CN2CCN(c3ccccn3)CC2)nc2ccccc21 [Example 10, N,N-dimethyl-2-[(4-pyridin-2-ylpiperazin-1-yl)methyl]-1H-benzimidazole-1-carboxamide]	174 to 176	
N#Cc1ccccc1N1CCN(Cc2nc3ccccc3[nH]2)CC1 [Example 12, 2-[4-(1H-benzimidazol-2-ylmethyl)piperazin-1-yl]benzonitrile]	236 to 237	
Oc1ccc(N2CCN(Cc3nc4ccccc4[nH]3)CC2)cc1 [Example 17, 4-[4-(1H-benzimidazol-2-ylmethyl)piperazin-1-yl]phenol]	206 to 209	
CCOc1ccccc1N1CCN(Cc2nc3ccccc3[nH]2)CC1 [Example 19, 2-{[4-(2-ethoxyphenyl)piperazin-1-yl]methyl}-1H-benzimidazole]	95 to 100	

Second part, led by results:

melting point [°C]	Compound	also measured
144 to 145	Oc1ccc(N2CCN(Cc3nc4ccccc4[nH]3)CC2)nc1 [6-[4-(1H-benzimidazol-2-ylmethyl)piperazin-1-yl]pyridin-3-ol]	Induction of penile erections in rats (result in words) (Wistar rats): induced statistically significant penile erections
198 to 200	c1cnc(N2CCN(Cc3nc4ccccc4[nH]3)CC2)nc1 [Example 2, 2-[(4-pyrimidin-2-ylpiperazin-1-yl)methyl]-1H-benzimidazole]	
208 to 210	N#Cc1cccnc1N1CCN(Cc2nc3ccccc3[nH]2)CC1 [Example 4, 2-[4-(1H-benzimidazol-2-ylmethyl)piperazin-1-yl]nicotinonitrile]	
262 to 264	Fc1ccccc1N1CCN(Cc2nc3ccccc3[nH]2)CC1 [Example 14, 2-{[4-(2-fluorophenyl)piperazin-1-yl]methyl}-1H-benzimidazole]	
214 to 216	CSc1ccccc1N1CCN(Cc2nc3ccccc3[nH]2)CC1 [Example 18, 2-({4-[2-(methylthio)phenyl]piperazin-1-yl}methyl)-1H-benzimidazole]	
208 to 216	Oc1ccccc1N1CCN(Cc2nc3ccccc3[nH]2)CC1 [Example 20, 2-[4-(1H-benzimidazol-2-ylmethyl)piperazin-1-yl]phenol]	
207 to 209	CC1CN(c2ccccn2)CCN1Cc1nc2ccccc2[nH]1 (centres unmarked) [Example 24, 2-[(2-methyl-4-pyridin-2-ylpiperazin-1-yl)methyl]-1H-benzimidazole]	
149 to 151	C[C@H]1CN(c2ccccn2)CCN1Cc1nc2ccccc2[nH]1 [Example 25, 2-{[(2S)-2-methyl-4-pyridin-2-ylpiperazin-1-yl]methyl}-1H-benzimidazole]	
151 to 153	C[C@@H]1CN(c2ccccn2)CCN1Cc1nc2ccccc2[nH]1 [Example 26, 2-{[(2R)-2-methyl-4-pyridin-2-ylpiperazin-1-yl]methyl}-1H-benzimidazole]	
210 to 212	Fc1cccnc1N1CCN(Cc2nc3ccccc3[nH]2)CC1 [Example 28, 2-{[4-(3-fluoropyridin-2-yl)piperazin-1-yl]methyl}-1H-benzimidazole]	
